In patent publication US20240307294A1, “Topical Composition and Carrier for Administration of Pharmaceutically or Cosmetically Active Ingredients” (EMOLLIVET AB, priority 2013, published 2024):

Test: Carrier dissolution capacity (admixing controlled amounts of active agent)
Assay type: physicochemical
Method: The dissolution capacity of different carriers was tested by admixing controlled amounts of active agent.

[1] = carrier Lipoid S100 0.0 / Urea 2.0 / Ethanol 98.0 % w/w
[2] = carrier Lipoid S100 5.0 / Urea 2.0 / Ethanol 93.0 % w/w
[3] = carrier Lipoid S100 10.0 / Urea 2.0 / Ethanol 88.0 % w/w
[4] = carrier Lipoid S100 20.0 / Urea 2.0 / Ethanol 78.0 % w/w
[5] = carrier Lipoid S100 30.0 / Urea 2.0 / Ethanol 68.0 % w/w

Compound	Highest complete dissolution [1] [% w/w]	Lowest incomplete dissolution [1] [% w/w]	Lowest incomplete dissolution (carrier Lipoid S100 5.0 / Urea 1.0 / Ethanol 94.0 % w/w) [% w/w]	Highest complete dissolution [2] [% w/w]	Lowest incomplete dissolution [2] [% w/w]	Highest complete dissolution [3] [% w/w]	Lowest incomplete dissolution [3] [% w/w]	Highest complete dissolution [4] [% w/w]	Lowest incomplete dissolution [4] [% w/w]	Highest complete dissolution [5] [% w/w]	Lowest incomplete dissolution [5] [% w/w]	Highest complete dissolution (carrier Lipoid S100 49.5 / Urea 1.0 / Ethanol 49.5 % w/w) [% w/w]	Highest complete dissolution (carrier Lipoid S100 3.4 / Urea 2.0 / Ethanol 94.7 % w/w) [% w/w]
C[C@]12CCC(=O)C=C1CC[C@@H]1[C@@H]2[C@@H](O)C[C@@]2(C)[C@H]1CC[C@]2(O)C(=O)CO [Hydrocortisone]	2.09	2.25	2.28	2.22	2.37	2.48	2.83	2.82	3.22	3.19	3.50	2.89	
Calcium pantothenate	0.27	0.40		0.50		0.98		1.81		3.17			0.41
